Measured values published in patent publication US11046704B2, “Derivatives of porphyrins, their process of preparation and their use for treating viral infections” (INSTITUT NATIONAL DE LA SANTE ET DE LA RECHERCHE MEDICALE …, priority 2015, dated 2021).

System: HIV-1
Test: Viral infectivity test on HeLa P4 cells
Format: cell-based
Experimental: FIG. 2: Effects of G4 ligands compared with AZT on HIV-1 infectivity using the HeLa P4 cell system for studying the replication of HIV-1. The HeLa P4 cells contain a gene lacZ encoding beta-galactosidase under the control of the viral LTR and whose transcription is activated by the viral protein Tat. The cells are incubated with the ligand then infected with HIV-1. After 24 hours the activity of beta-galactosidase, which is proportional to the infectivity of the virus is then measured on a fluorescence plate reader.
C. Cell lines and viruses: HeLa P4 cells encoding a Tat-inducible β-galactosidase were maintained in DMEM medium (Invitrogen) supplemented with 10% inactivated FCS, 1 mg/ml geneticin (G418, Gibco-BRL), gentamycin. MT4 and H9LaI cells were grown in RPMI 1640 glutamax medium (Invitrogen) supplemented with 10% inactivated FCS. HIV-1 viruses were obtained after 48 h co-culture of MT4 cells (0.5×10^6/ml) and H9Laï cells (1×10^6/ml), chronically infected by HIV-1LaI isolate, in RPMI 1640 glutamax medium supplemented with 10% inactivated FCS, at 37° C. under humidified atmosphere and […]. […]
D. Viral infectivity test: The G4 ligands are incubated in presence of the HelaP4 cells 20 minutes before infection. […] After 24 h, the reaction was measured in a fluorescence microplate reader (Cytofluor II, Applied Biosystems) at 360/460 nm Ex/Em.

Cc1cn([C@H]2C[C@H](N=[N+]=[N-])[C@@H](CO)O2)c(=O)[nH]c1=O [AZT]
IC50 (24 h of infection, beta-galactosidase readout): 40 nM

C[n+]1ccc(-c2c3nc(c(-c4cc[n+](C)cc4)c4ccc([nH]4)c(-c4cc[n+](C)cc4)c4ccc([nH]4)c(-c4cc[n+](C)cc4)c4nc2C=C4)C=C3)cc1 [Tmpyp4]
inhibition of viral replication: weak inhibitors of viral replication
